SMILES strings stand for the structures.

The assay deals with T1, human DGAT1 (Homo sapiens, UniProt O75907).
T1 construct: made in house; host or cells: Sf9 insect cells (microsomes)
T1 sequence (O75907 1-488): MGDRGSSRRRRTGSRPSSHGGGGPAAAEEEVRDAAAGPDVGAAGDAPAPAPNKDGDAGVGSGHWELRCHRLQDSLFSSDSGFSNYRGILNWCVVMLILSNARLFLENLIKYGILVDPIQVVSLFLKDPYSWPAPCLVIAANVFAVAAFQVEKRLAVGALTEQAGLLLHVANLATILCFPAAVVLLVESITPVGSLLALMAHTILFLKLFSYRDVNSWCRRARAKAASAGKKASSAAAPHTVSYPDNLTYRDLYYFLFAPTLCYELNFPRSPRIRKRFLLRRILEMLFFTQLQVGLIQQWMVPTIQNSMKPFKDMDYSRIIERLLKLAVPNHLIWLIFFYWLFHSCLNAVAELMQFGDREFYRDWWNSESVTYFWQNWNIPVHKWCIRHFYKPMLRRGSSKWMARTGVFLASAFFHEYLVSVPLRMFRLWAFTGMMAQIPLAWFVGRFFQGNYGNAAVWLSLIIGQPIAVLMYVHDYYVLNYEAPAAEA
As to the kind of experiment: in vitro DGAT1 inhibition assay (microsomes, [14C]-palmitoyl-CoA, wheat germ agglutinin beads). Particulars: human DGAT1 enzyme expressed in Sf9 insect cells, 2 hours at room temperature. Format: biochemical. On the procedure:
The assay used to determine the DGAT inhibitory activity of the inventive compounds is described below:
The in vitro assay to identify DGAT1 inhibitors uses human DGAT1 enzyme expressed in Sf9 insect cells prepared as microsomes. The reaction was initiated by the addition of the combined substrates 1,2-dioleoyl-sn-glycerol and [^14C]-palmitoyl-CoA and incubated with test compounds and microsomal membranes for 2 hours at room temperature. The assay was stopped by adding 0.5 mg wheat germ agglutinin beads in assay buffer with 1% Brij-35 and 1% 3-cholamidopropyldimethyl-ammonio-1-propane sulfonate. Plates were sealed with TopSeal and incubated for 18 hours to allow the radioactive triglyceride product to come into proximity with the bead. Plates were read on a TopCount instrument.
Percent inhibition was calculated as the percent of (test compound inhibition minus non-specific binding) relative to (total binding minus non-specific binding). IC50 values were determined by curve fitting the data to a Sigmoidal dose-response in GraphPad Prism utilizing the following equation:
Y=A+(B−A)/(1+10̂((LogIC50−X))),
where A and B are the bottom and top of the curve (highest and lowest inhibition), respectively, and X is the logarithm of concentration.
Broadly, the IC50 is the concentration that inhibits the measured activity by half. A low value points to higher potency. `Cc1cc(C(=O)Nc2ccccc2)c2ccc(-c3ccc([C@H]4CC[C@H](CC(=O)O)CC4)cc3)cc2n1` [Example C-134, 2-((1r,4r)-4-(4-(2-methyl-4-(phenylcarbamoyl)quinolin-7-yl)phenyl)cyclohexyl)acetic acid] came in with a 50% inhibitory concentration (IC50) of 28 nM. For `CCCCCCCNC(=O)N1CC(CC)Oc2cc(-c3ccc([C@H]4CC[C@H](CC(=O)O)CC4)cc3)ccc21` (stereo partly shown) [Example C-150, 2-((1r,4r)-4-(4-(2-ethyl-4-(heptylcarbamoyl)-3,4-dihydro-2H-benzo[b][1,4]oxazin-7-yl)phenyl)cyclohexyl)acetic acid], the IC50 amounted to 83 nM.

`CC1CN(C(=O)Nc2ccc(F)cc2C(F)(F)F)c2ccc(-c3ccc([C@H]4CC[C@H](CC(=O)O)CC4)cc3)cc2O1` (single isomer, unassigned) [C-78 enantiomer A, 2-((1r,4r)-4-(4-(4-(4-fluoro-2-(trifluoromethyl)phenylcarbamoyl)-2-methyl-3,4-dihydro-2H-benzo[b][1,4]oxazin-7-yl)phenyl)cyclohexyl)acetic acid]: the IC50 came out at 79 nM. Regarding `CCCc1ccccc1NC(=O)c1ccnc2cc(-c3ccc([C@H]4CC[C@H](CC(=O)O)CC4)cc3)ccc12` [Example C-129, 2-((1r,4r)-4-(4-(4-(2-propylphenylcarbamoyl)quinolin-7-yl)phenyl)cyclohexyl)acetic acid], the IC50 was found to be 94 nM. As for `CCCCCCCNC(=O)N1CC(C)Oc2cc(-c3ccc([C@H]4CC[C@H](CC(=O)O)CC4)cc3)ccc21` (stereo partly shown) [Example C-116, 2-((1r,4r)-4-(4-(4-(heptylcarbamoyl)-2-methyl-3,4-dihydro-2H-benzo[b][1,4]oxazin-7-yl)phenyl)cyclohexyl)acetic acid], the figure is 71 nM; as for `O=C(O)C[C@H]1CC[C@H](c2ccc(-c3ccc4c(C(=O)Nc5ccccc5)ccnc4c3)cc2)CC1` [Example B-48, 2-((1r,4r)-4-(4-(4-(phenylcarbamoyl)quinolin-7-yl)phenyl)cyclohexyl)acetic acid], 83 nM.

`CCc1ccccc1NC(=O)N1C[C@@H](C)Oc2cc(-c3ccc([C@H]4CC[C@H](CC(=O)O)CC4)cc3)ccc21` [C-81 enantiomer A, 2-((1r,4r)-4-(4-(4-(2-ethylphenylcarbamoyl)-2-methyl-3,4-dihydro-2H-benzo[b][1,4]oxazin-7-yl)phenyl)cyclohexyl)acetic acid] came in with an IC50 of 58 nM.

`Cc1cc(C(=O)NCCc2ccccc2)c2ccc(-c3ccc([C@H]4CC[C@H](CC(=O)O)CC4)cc3)cc2n1` [Example C-139, 2-((1r,4r)-4-(4-(2-methyl-4-(phenethylcarbamoyl)quinolin-7-yl)phenyl)cyclohexyl)acetic acid] gave an IC50 of 61 nM.

The compound `O=C(O)C[C@H]1CC[C@H](c2ccc(-c3ccc4c(c3)OCCN4C(=O)Nc3ccc(F)cc3C(F)(F)F)cc2)CC1` [Example C-6, 2-((1r,4r)-4-(4-(4-(4-fluoro-2-(trifluoromethyl)phenylcarbamoyl)-3,4-dihydro-2H-benzo[b][1,4]oxazin-7-yl)phenyl)cyclohexyl)acetic acid] returned an IC50 of 20 nM. Compound `C[C@@H]1CN(C(=O)Nc2ccccc2)c2ccc(-c3ccc([C@H]4CC[C@H](CC(=O)O)CC4)cc3)cc2O1` [B-18 enantiomer A, 2-((1r,4r)-4-(4-(2-methyl-4-(phenylcarbamoyl)-3,4-dihydro-2H-benzo[b][1,4]oxazin-7-yl)phenyl)cyclohexyl)acetic acid] returned an IC50 of 43 nM. As for `CCCCCCNC(=O)N1CC(C)Oc2cc(-c3ccc([C@H]4CC[C@H](CC(=O)O)CC4)cc3)ccc21` (stereo partly shown) [Example C-113, 2-((1r,4r)-4-(4-(4-(hexylcarbamoyl)-2-methyl-3,4-dihydro-2H-benzo[b][1,4]oxazin-7-yl)phenyl)cyclohexyl)acetic acid], the figure is 82 nM; as for `CC(C)c1ccccc1NC(=O)c1ccnc2cc(-c3ccc([C@H]4CC[C@H](CC(=O)O)CC4)cc3)ccc12` [Example C-125, 2-((1r,4r)-4-(4-(4-(2-isopropylphenylcarbamoyl)quinolin-7-yl)phenyl)cyclohexyl)acetic acid], 72 nM; as for `Cc1cc(C(=O)NCCCCc2ccccc2)c2ccc(-c3ccc([C@H]4CC[C@H](CC(=O)O)CC4)cc3)cc2n1` [Example C-141, 2-((1r,4r)-4-(4-(2-methyl-4-(4-phenylbutylcarbamoyl)quinolin-7-yl)phenyl)cyclohexyl)acetic acid], 15 nM.

The values above are taken from US20120022057A1, “BICYCLIC COMPOUNDS AS INHIBITORS OF DIACYGLYCEROL ACYLTRANSFERASE” (Schering Corporation, priority 2009, published 2012).
